From ChEMBL document CHEMBL3046535, “Evaluation of some weed control treatments for long season weed control in maize (Zea mays L.) under zero and minimum tillage at Samaru, in Nigeria” (Crop Prot, 2008)

Assays:
Format in all cases: organism-based
Zea mays [1] = assay: Toxicity in Zea mays TZBSR (maize) assessed as plant height at 1.5 kg a.i/ha applied post-emergence after ridgining at minimum tillage conditions using Knapsack sprayer measured 9 weeks post treatment; settings: in vivo, other, 1512 h
Zea mays [2] = assay: Toxicity in Zea mays TZBSR (maize) assessed as crop stand count at 1.5 kg a.i/ha applied post-emergence after ridgining at minimum tillage conditions using Knapsack sprayer measured 6 weeks post treatment; settings: in vivo, other, 1008 h
Zea mays [3] = assay: Toxicity in Zea mays TZBSR (maize) assessed as crop vigour at 1.5 kg a.i/ha applied post-emergence after ridgining at minimum tillage conditions using Knapsack sprayer; settings: in vivo, other
Zea mays [4] = assay: Toxicity in Zea mays TZBSR (maize) assessed as crop injury at 1.5 kg a.i/ha applied post-emergence after ridgining at minimum tillage conditions using Knapsack sprayer; settings: in vivo, other

Row | Structure (SMILES) | Activity (Zea mays [1]) | Activity (Zea mays [2]) | Activity (Zea mays [3]) | Activity (Zea mays [4])
1 | O=C(O)COc1ccc(Cl)cc1Cl [2,4-DICHLOROPHENOXYACETIC ACID] | 3.33 m | Non-toxic | Non-toxic | Non-toxic
2 | CCNc1nc(Cl)nc(NC(C)C)n1 [ATRAZINE] | 3.35 m | – | Non-toxic | Non-toxic
